Source: publication PMC7400207, “It Takes Two: Dimerization Is Essential for the Broad-Spectrum Predatory and Defensive Activities of the Venom Peptide Mp1a from the Jack Jumper Ant Myrmecia pilosula” (Biomedicines, 2020)
Converted amounts (≈) assume the structure as drawn. “And” between values parts separate entries of the source, which are not always exact repeats. Equal values may be shown once. Read-outs that look alike come from different tables or passages of the source.

Experiments:
[1] = system: mouse dorsal root ganglion (DRG) cells; test: Calcium imaging of mammalian sensory neurons; type: cell-based; conditions: 1 µM peptide, Fluo-4 calcium imaging, neuronal and non-neuronal cells
Protocol: Calcium imaging of a heterogenous population of mouse dorsal root ganglion (DRG) sensory neurons was performed as previously described. In brief, dorsal root ganglion (DRG) cells isolated from 4–8-week-old male C57BL/6 mice under ethics approval TRI/IMB/093/17 (University of Queensland Animal Ethics Committee, approval date 31/03/2017) were dissociated and then plated in Dulbecco’s modified Eagle’s medium (Gibco, Grand Island, NY, USA) containing 10% fetal bovine serum (FBS; Assaymatrix, Melbourne, Australia) and penicillin/streptomycin (Gibco) on a 96-well poly-D-lysine–coated culture plate (Corning, Lowell, MA, USA), and maintained overnight. Cells were loaded with Fluo-4 AM calcium indicator as per the manufacturer’s instructions (Thermo Fisher Scientific, Grand Island, NY, USA). After loading for 1 h, the dye solution was replaced with assay solution (Hanks’ balanced salt solution and 20 mM HEPES). Fluorescence corresponding to intracellular calcium ([Ca^2+]i) of typically 100–150 DRG cells per experiment was monitored in parallel using a Nikon Ti-E deconvolution inverted microscope, equipped with a Lumencor Spectra LED light source. Images were acquired at a 20× objective at one frame/s (excitation 485 nm; emission 521 nm). For each experiment, baseline fluorescence was monitored for 30 s and then a wash of assay solution was applied.

Haemonchus contortus = test: microbe, parasite or virus in culture; type: cell-based
Protocol: Sheep were infected with H. contortus Kirby isolate (field isolate from the University of New England Kirby Research Farm in 1986; susceptible to all commercial anthelmintics) and housed at the Commonwealth Scientific and Industrial Research Organisation (CSIRO) FD McMaster Laboratory, Armidale, NSW. All animal procedures were approved by the FD McMaster Animal Ethics Committee, CSIRO (Approval Number AEC 17/12, approval date 15.6.2017). Eggs were prepared from overnight fecal collection as described. In brief, feces were filtered through mesh filters, settled, and supernatant removed by vacuum. Eggs were recovered by density centrifugation using 10 and 25% (w/v) sucrose solutions, centrifuged at 650× g for 7 min. Eggs were recovered from the interface of the two sucrose layers, rinsed with distilled water, sterilized with bleach, rinsed again, and diluted to 4500 eggs/mL. Tylosin tartrate (800 μg/mL) and amphotericin B (25.0 μg/mL) were added, and eggs were used immediately for larval development assays.
Assays were conducted using 96-well microtitre plates, with each well containing 50 μL of 2% agar, 20 μL of egg solution and 20 μL of peptide solution in water. The commercial anthelmintic levamisole (Sigma Aldrich) was used as a positive control (final 1% v/v). Negative controls contained equivalent volumes of water or DMSO (final 1% v/v). Plates were incubated at 26 °C for six days. After 24 h, each well was fed with 10 μL of a nutrient solution containing Escherichia coli XL1-Blue1 (grown overnight at 37 °C) and growth medium. The growth medium consisted of yeast extract (1% w/v), Earle’s salt solution (10% v/v), saline solution (0.9% NaCl, w/v), and sodium bicarbonate (1 mM) in Luria-Bertani medium (LB). Larvae were killed and stained with Lugol’s iodine solution after six days. Larvae that had developed to the infective L3 stage were counted, and the numbers in treated assay wells were expressed as a percentage of the number of infective L3 stage larvae in multiple control wells. Concentrations that caused 50% inhibition (IC50 values) were calculated from three experiments of duplicate assays.

Drosophila melanogaster = Drosophila melanogaster microinjection assay; type: in vivo; conditions: intrathoracic injection, 50 nL, adult female flies, lethality at 24 h; three dose-response curves, ± SEM
Protocol: The insecticidal activity of the chemically synthesized 1a and analogues thereof were determined by injection into adult female D. melanogaster aged 3–5 days (mass 0.7–0.9 mg) as described previously. Analogues were dissolved in water and intrathoracically injected using pulled glass capillaries at a volume of 50 nL per fruit fly, and the results were compared against an equivalent injection volume of water alone. All injections were performed in the morning or early afternoon. At 24 h post-injection flies were monitored for lethality. Dose–response curves were constructed using 7–10 doses per analogue (each dose tested in eight flies) and three separate dose–response curves were constructed for each analogue. The lethality in the groups receiving the analogues were adjusted using the respective control group lethality using the Henderson-Tilton formula [20]. The median lethal dose (LD50) of each analogue was calculated based on the three dose–response curves using GraphPad Prism 8.0 [21]. One-way ANOVA followed by Dunnett’s multiple comparison test were used to compare LD50 values.

HEK293 cells = conditions: HEK293, 24 h, resazurin; cited from earlier work
Protocol: (§1) Table 2 Summary of bioassay data for synthetic Mp1a and analogues, including effective concentration (EC50) for activation of F11 cells, concentrations that caused 50% inhibition (IC50) for inhibition of larval development of H. contortus; median lethal dose (LD50) for lethal insecticidal effects on D. melanogaster; concentrations required to induce 50% cell death (CC50) for effects on viability o | column: Cytotoxicity (CC50 µM) ^b

human red blood cells = conditions: cited from earlier work
Protocol: as §1, with “Hemolysis (HC50” for “Cytotoxicity (CC50”

E. coli ATCC 25922 = conditions: taken from Dekan et al.; cited from earlier work
[2] = system: K. pneumoniae ATCC 700603; conditions: taken from Dekan et al.; cited from earlier work
[3] = system: K. pneumoniae ATCC BAA-2146; conditions: taken from Dekan et al.; cited from earlier work
A. baumannii ATCC 19606 = conditions: taken from Dekan et al.; cited from earlier work
P. aeruginosa ATCC 27853 = conditions: taken from Dekan et al.; cited from earlier work
P. aeruginosa FADDI-PA70 = conditions: taken from Dekan et al.; cited from earlier work
S. aureus ATCC 43300 = conditions: taken from Dekan et al.; cited from earlier work
S. aureus NARSA-VRS1 = conditions: taken from Dekan et al.; cited from earlier work

**Q.** Which results are given for `CC[C@H](C)[C@H](N)C(=O)N[C@@H](CC(=O)O)C(=O)N[C@@H](Cc1c[nH]c2ccccc12)C(=O)N[C@@H](CCCCN)C(=O)N[C@@H](CCCCN)C(=O)N[C@H](C(=O)N[C@@H](CC(=O)O)C(=O)N[C@@H](Cc1c[nH]c2ccccc12)C(=O)N[C@@H](CCCCN)C(=O)N[C@@H](CCCCN)C(=O)N[C@H](C(=O)N[C@@H](CO)C(=O)N[C@@H](CCCCN)C(=O)N[C@@H](CCCCN)C(=O)N[C@H](C(=O)N[C@H]1CSSC[C@@H](C(=O)N[C@@H](CCCCN)C(=O)N[C@@H](CCCCN)C(=O)N[C@H](C(=O)N[C@@H](CC(C)C)C(=O)N[C@@H](CCCCN)C(=O)N[C@@H](CCC(N)=O)C(N)=O)C(C)C)NC(=O)[C@H](C(C)C)NC(=O)[C@H]([C@@H](C)O)NC(=O)[C@H](CCCCN)NC(=O)[C@H](C(C)C)NC(=O)[C@H](CC(C)C)NC(=O)[C@H](C(C)C)NC(=O)[C@@H](NC(=O)[C@@H](NC(=O)CNC(=O)[C@H](CCCCN)NC(=O)[C@H](CO)NC(=O)[C@@H](NC(=O)[C@H](CC(C)C)NC(=O)CNC(=O)[C@@H](NC(=O)[C@@H](N)CC(C)C)[C@@H](C)CC)C(C)C)[C@@H](C)O)CSSC[C@@H](C(=O)N[C@@H](CCCCN)C(=O)N[C@@H](Cc2ccccc2)C(=O)N[C@@H](CC(C)C)C(N)=O)NC(=O)[C@H](C)NC(=O)[C@H](CCCCN)NC(=O)[C@H](CC(C)C)NC(=O)[C@H](CCSC)NC(=O)[C@H](C(C)C)NC(=O)[C@H](CCCCN)NC1=O)[C@@H](C)O)C(C)C)C(C)C` [Analogue 1a, ∆-myrtoxin-Mp1a]?
**A.** Effect on [Ca2+]i of DRG cells [1]: rapid increase in [Ca^2+]i in all cells; IC50 (Haemonchus contortus; H. contortus Kirby isolate, egg to infective L3, 6 days, 26 °C, three experiments of duplicate assays, ± SEM, for 1a the component at higher concentrations (about 90% of population), read-out: Anthelmintic Activity (IC50), inhibition of larval development): 6800 ± 500 nM; IC50 (Haemonchus contortus; H. contortus larval development, component of the response at < 2 µM, read-out: IC50 for the response observed at lower concentrations (biphasic curve)): 190 nM; Larval development as % of that observed in control assays (Haemonchus contortus; at low micromolar concentrations (< 2 µM)): 90%; Fold more potent than spider-venom peptide Hi1a (Haemonchus contortus; larval development, same assay): about threefold; Insecticidal Activity (LD50) (Drosophila melanogaster): 260 pmol/g and 260.1 ± 16.6 pmol/g; Cytotoxicity (CC50) (HEK293 cells): 600 nM; Hemolysis (HC50) (human red blood cells): 2.2 µM; MIC (E. coli ATCC 25922): 0.1 to 0.2 µM; MIC [2]: 0.4 to 0.8 µM; MIC [3]: 0.1 to 0.2 µM; MIC (A. baumannii ATCC 19606): 0.025 µM (≈ 0.14 µg/mL); MIC (P. aeruginosa ATCC 27853): 0.4 to 0.8 µM; MIC (P. aeruginosa FADDI-PA70): 0.8 µM (≈ 4.49 µg/mL); MIC (S. aureus ATCC 43300): 0.8 µM (≈ 4.49 µg/mL); MIC (S. aureus NARSA-VRS1): 3.2 to 6.4 µM
